Test results taken from the NIST ThermoML archive (doi:10.1021/acs.jced.8b01097).
Numbers after ± are expanded uncertainties.

Experiments:
[1] = 85 kPa, Liquid; for viscosity: Concentric cylinders viscometry; for mass density: Vibrating tube method
[2] = xn = mol fraction of the nth substance listed; details: 85 kPa, Liquid; for viscosity: Concentric cylinders viscometry; for mass density: Vibrating tube method

Structure (SMILES) | viscosity ([1]; 293.15 K) | mass density ([1]; 293.15 K) | viscosity ([1]; 298.15 K) | mass density ([1]; 298.15 K) | viscosity ([1]; 303.15 K) | mass density ([1]; 303.15 K) | viscosity ([1]; 308.15 K) | mass density ([1]; 308.15 K) | viscosity ([1]; 313.15 K) | mass density ([1]; 313.15 K) | viscosity ([1]; 318.15 K) | mass density ([1]; 318.15 K) | viscosity ([1]; 323.15 K) | mass density ([1]; 323.15 K) | further results
NCCCO [3-amino-1-propanol] | 37.33 ± 2.3 mPa·s | 987.8 ± 1.3 kg/m3 | 28.59 ± 1.7 mPa·s | 984.3 ± 1.2 kg/m3 | 22.31 ± 1.4 mPa·s | 980.3 ± 1.2 kg/m3 | 17.67 ± 1.1 mPa·s | 976.2 ± 1.2 kg/m3 | 14.21 ± 0.86 mPa·s | 972.3 ± 1.2 kg/m3 | 11.58 ± 0.7 mPa·s | 968.5 ± 1.2 kg/m3 | 9.546 ± 0.58 mPa·s | 964.9 ± 1.2 kg/m3 | –
CCC(C)O (stereo not drawn) [butan-2-ol] | 3.743 ± 0.23 mPa·s | 806.2 ± 1 kg/m3 | 3.101 ± 0.19 mPa·s | 802 ± 1 kg/m3 | 2.579 ± 0.16 mPa·s | 797.9 ± 1 kg/m3 | 2.162 ± 0.13 mPa·s | 793.6 ± 1 kg/m3 | 1.828 ± 0.11 mPa·s | 789.2 ± 1 kg/m3 | 1.559 ± 0.094 mPa·s | 784.7 ± 1 kg/m3 | 1.318 ± 0.08 mPa·s | 780.2 ± 1 kg/m3 | –
CCC(C)O (stereo not drawn) [butan-2-ol] + NCCCO | – | – | – | – | – | – | – | – | – | – | – | – | – | – | viscosity ([2]; 293.15 K, x1 = 1): 3.743 ± 0.23 mPa·s; mass density ([2]; 293.15 K, x1 = 1): 806.2 ± 1 kg/m3; viscosity ([2]; 298.15 K, x1 = 1): 3.101 ± 0.19 mPa·s; mass density ([2]; 298.15 K, x1 = 1): 802 ± 1 kg/m3; viscosity ([2]; 303.15 K, x1 = 1): 2.579 ± 0.16 mPa·s; mass density ([2]; 303.15 K, x1 = 1): 797.9 ± 1 kg/m3; viscosity ([2]; 308.15 K, x1 = 1): 2.162 ± 0.13 mPa·s; mass density ([2]; 308.15 K, x1 = 1): 793.6 ± 1 kg/m3; viscosity ([2]; 313.15 K, x1 = 1): 1.828 ± 0.11 mPa·s; mass density ([2]; 313.15 K, x1 = 1): 789.2 ± 1 kg/m3; viscosity ([2]; 318.15 K, x1 = 1): 1.559 ± 0.094 mPa·s; mass density ([2]; 318.15 K, x1 = 1): 784.7 ± 1 kg/m3; viscosity ([2]; 323.15 K, x1 = 1): 1.318 ± 0.08 mPa·s; mass density ([2]; 323.15 K, x1 = 1): 780.2 ± 1 kg/m3
CCCO [propan-1-ol] | 2.215 ± 0.13 mPa·s | 803.5 ± 1 kg/m3 | 1.97 ± 0.12 mPa·s | 799.4 ± 1 kg/m3 | 1.752 ± 0.11 mPa·s | 795.4 ± 1 kg/m3 | 1.563 ± 0.094 mPa·s | 791.3 ± 1 kg/m3 | 1.399 ± 0.085 mPa·s | 787.2 ± 1 kg/m3 | 1.255 ± 0.076 mPa·s | 783.1 ± 1 kg/m3 | 1.129 ± 0.068 mPa·s | 778.9 ± 1 kg/m3 | –
CCCO [propan-1-ol] + CCC(C)O | – | – | – | – | – | – | – | – | – | – | – | – | – | – | viscosity ([2]; 293.15 K, x2 = 0): 2.215 ± 0.13 mPa·s; mass density ([2]; 293.15 K, x2 = 0): 803.5 ± 1 kg/m3; viscosity ([2]; 298.15 K, x2 = 0): 1.97 ± 0.12 mPa·s; mass density ([2]; 298.15 K, x2 = 0): 799.4 ± 1 kg/m3; viscosity ([2]; 303.15 K, x2 = 0): 1.752 ± 0.11 mPa·s; mass density ([2]; 303.15 K, x2 = 0): 795.4 ± 1 kg/m3; viscosity ([2]; 308.15 K, x2 = 0): 1.563 ± 0.094 mPa·s; mass density ([2]; 308.15 K, x2 = 0): 791.3 ± 1 kg/m3; viscosity ([2]; 313.15 K, x2 = 0): 1.399 ± 0.085 mPa·s; mass density ([2]; 313.15 K, x2 = 0): 787.2 ± 1 kg/m3; viscosity ([2]; 318.15 K, x2 = 0): 1.255 ± 0.076 mPa·s; mass density ([2]; 318.15 K, x2 = 0): 783.1 ± 1 kg/m3; viscosity ([2]; 323.15 K, x2 = 0): 1.129 ± 0.068 mPa·s; mass density ([2]; 323.15 K, x2 = 0): 778.9 ± 1 kg/m3
CC(C)O [propan-2-ol] | 2.429 ± 0.15 mPa·s | 784.9 ± 1 kg/m3 | 2.095 ± 0.13 mPa·s | 780.7 ± 1 kg/m3 | 1.808 ± 0.11 mPa·s | 776.4 ± 1 kg/m3 | 1.567 ± 0.094 mPa·s | 772.1 ± 1 kg/m3 | 1.366 ± 0.082 mPa·s | 767.6 ± 1 kg/m3 | 1.195 ± 0.072 mPa·s | 763.1 ± 1 kg/m3 | 1.052 ± 0.064 mPa·s | 758.5 ± 1 kg/m3 | –
CC(C)O [propan-2-ol] + CCC(C)O | – | – | – | – | – | – | – | – | – | – | – | – | – | – | viscosity ([2]; 293.15 K, x2 = 0): 2.429 ± 0.15 mPa·s; mass density ([2]; 293.15 K, x2 = 0): 784.9 ± 1 kg/m3; viscosity ([2]; 298.15 K, x2 = 0): 2.095 ± 0.13 mPa·s; mass density ([2]; 298.15 K, x2 = 0): 780.7 ± 1 kg/m3; viscosity ([2]; 303.15 K, x2 = 0): 1.808 ± 0.11 mPa·s; mass density ([2]; 303.15 K, x2 = 0): 776.4 ± 1 kg/m3; viscosity ([2]; 308.15 K, x2 = 0): 1.567 ± 0.094 mPa·s; mass density ([2]; 308.15 K, x2 = 0): 772.1 ± 1 kg/m3; viscosity ([2]; 313.15 K, x2 = 0): 1.366 ± 0.082 mPa·s; mass density ([2]; 313.15 K, x2 = 0): 767.6 ± 1 kg/m3; viscosity ([2]; 318.15 K, x2 = 0): 1.195 ± 0.072 mPa·s; mass density ([2]; 318.15 K, x2 = 0): 763.1 ± 1 kg/m3; viscosity ([2]; 323.15 K, x2 = 0): 1.052 ± 0.064 mPa·s; mass density ([2]; 323.15 K, x2 = 0): 758.5 ± 1 kg/m3
